Article PMC4894499 (Journal of pharmaceutical sciences, 2016)

What was measured:
human SCH [1] = details: cited from earlier work
P-gp = details: human SCH, treatment for 3 days; cited from earlier work
rat SCH [2] = details: cited from earlier work
human SCH [3] = details: cited from earlier work; remark: listed apart in the source
[4] = Bile acid toxicity: intracellular ATP; assay type: cell-based, rat; details: rat, sandwich-cultured hepatocytes (SCH)
rat SCH [5] = assay: Bile acid toxicity: intracellular ATP; assay type: cell-based; details: rat SCH, 0 – 0.2 mM LCA, 6, 12, 24 hr
[6] = Bile acid toxicity: intracellular ATP; assay type: cell-based, human; details: human, sandwich-cultured hepatocytes (SCH)
human SCH [7] = assay: Bile acid toxicity: intracellular ATP; assay type: cell-based; details: human SCH, 0 – 0.2 mM LCA, 6, 12, 24 hr
[8] = Bile acid toxicity: LDH release in rat SCH; assay type: cell-based; details: rat, sandwich-cultured hepatocytes (SCH)
rat SCH [9] = assay: Bile acid toxicity: LDH release in rat SCH; assay type: cell-based; details: rat SCH, 0 – 0.2 mM LCA, 6, 12, 24 hr
human SCH [10] = assay: Bile acid toxicity: LDH release in human SCH; assay type: cell-based; details: human SCH, 0 – 0.2 mM LCA, 6, 12, 24 hr
human SCH [11] = assay: Intracellular bile acid concentrations by LC-MS/MS in human SCH; assay type: in vitro ADME; details: LCA-treated SCH
human SCH [12] = details: cited from earlier work; remark: listed apart in the source
human SCH [13] = details: fold greater; cited from earlier work
human SCH [14] = details: cited from earlier work; for Effect on total (cell + bile) and cellular accumulation of TCA: concentration-dependent
CYP3A4 and UGT1A1 = details: human SCH; cited from earlier work
rat SCH [15] = test system: rat SCH
rat SCH [16] = details: cited from earlier work; remark: listed apart in the source
[17] = Bile acid toxicity: LDH release in human SCH; assay type: cell-based; details: human, sandwich-cultured hepatocytes (SCH)

In the case of `COC(=O)C1=C(C)NC(C)=C(C(=O)OC(C)C)C1c1cccc2nonc12` (stereo not shown) [isradipine], the “Effect on canalicular efflux of TCA” value (human SCH [1]) is given as “minimal effects”.

For `CO[C@H]1/C=C/O[C@@]2(C)Oc3c(C)c(O)c4c(O)c(c(/C=N/N5CCN(C)CC5)c(O)c4c3C2=O)NC(=O)/C(C)=C\C=C\[C@H](C)[C@H](O)[C@@H](C)[C@@H](O)[C@@H](C)[C@H](OC(C)=O)[C@@H]1C` [rifampicin], the “Effect on BEI of digoxin” value (P-gp) is listed as “increase”.

For `CC(C)c1nc(CN(C)C(=O)N[C@H](C(=O)N[C@@H](Cc2ccccc2)C[C@H](O)[C@H](Cc2ccccc2)NC(=O)OCc2cncs2)C(C)C)cs1` [ritonavir], the “Effect on TCA biliary excretion (BEI and CLb, app, in vitro)” value (rat SCH [2]) is listed as “significantly reduced”, the “Effect on intracellular accumulation of TCA” value (rat SCH [2]) is listed as “increased” and the “Effect on canalicular efflux of TCA” value (human SCH [1]) is listed as “significantly reduced”. For the same compound, the “Effect on 99mTc–mebrofenin uptake” value (human SCH [3]) was “decreased” and the “Effect on BEI of 99mTc–mebrofenin” value (human SCH [3]) was “without changing”.

For `COc1ccc(Cl)cc1C(=O)NCCc1ccc(S(=O)(=O)NC(=O)NC2CCCCC2)cc1` [glyburide], the “Effect on canalicular efflux of TCA” value (human SCH [1]) is listed as “minimal effects”.

For `C[C@H](CCC(=O)O)[C@H]1CC[C@H]2[C@@H]3CC[C@@H]4C[C@H](O)CC[C@]4(C)[C@H]3CC[C@]12C` [LCA, lithocholic acid], the CC50 at 24 h [4] was 147 µM, the “Effect on cellular ATP” value (rat SCH [5]) was “concentration-dependent decrease” and the CC50 at 24 h [6] was 155 µM. For the same compound, the “Effect on cellular ATP” value (human SCH [7]) was “delayed decrease”, the CC50 at 24 h [8] was 146 µM and the LDH leakage (rat SCH [9]) was “increase”. The LDH leakage (human SCH [10]) was “minimal” and the “Intracellular concentration in human SCH compared with rat SCH” value (human SCH [11]) was “comparable”.

In the case of `CC(C)CN(C[C@@H](O)[C@H](Cc1ccccc1)NC(=O)O[C@H]1CO[C@H]2OCC[C@H]21)S(=O)(=O)c1ccc(N)cc1` [darunavir], the “Effect on CGamF accumulation” value (human SCH [12]) is given as “potently inhibited”.

In the case of `C[C@H](CCC(=O)NCCS(=O)(=O)O)[C@H]1CC[C@H]2[C@@H]3CC[C@@H]4C[C@H](O)CC[C@]4(C)[C@H]3CC[C@]12C` [TLCA, taurolithocholic acid], the “Intracellular concentration in human SCH relative to rat SCH, fold lower” value (human SCH [11]) is reported as ~ 100 fold.

In the case of `COC(c1ccccc1)(c1ccccc1)[C@H](Oc1nc(C)cc(C)n1)C(=O)O` [ambrisentan], the “Hepatocyte concentration relative to medium concentration” value (human SCH [13]) is listed as 2 fold and the “Effect on BEI and apparent biliary clearance of TCA (TCA biliary excretion)” value (“Effect … (TCA biliary excretion)” for short) (human SCH [14]) is listed as “minimal inhibitory effects”.

In the case of `COC(=O)N[C@H](C(=O)N[C@@H](Cc1ccccc1)[C@@H](O)CN(Cc1ccc(-c2ccccn2)cc1)NC(=O)[C@@H](NC(=O)OC)C(C)(C)C)C(C)(C)C` [atazanavir], the “Effect on CGamF accumulation” value (human SCH [12]) is given as “potently inhibited”.

For `CN(CCOc1ccc(CC2SC(=O)NC2=O)cc1)c1ccccn1` (stereo not shown) [rosiglitazone], the “Effect on canalicular efflux of TCA” value (human SCH [1]) is listed as “significantly reduced”.

For `CC(C)(C)NC(=O)[C@@H]1CN(Cc2cccnc2)CCN1C[C@@H](O)C[C@@H](Cc1ccccc1)C(=O)N[C@H]1c2ccccc2C[C@H]1O` [indivanir], the “Effect on CGamF accumulation” value (human SCH [12]) is listed as “potently inhibited”.

For `COc1ccccc1Oc1c(NS(=O)(=O)c2ccc(C(C)(C)C)cc2)nc(-c2ncccn2)nc1OCCO` [bosentan], the “Hepatocyte concentration relative to medium concentration” value (human SCH [13]) is listed as 20 fold, the “Effect … (TCA biliary excretion)” value (human SCH [14]) is listed as “significantly decreased” and the “Effect on sodium-dependent TCA uptake” value (human SCH [14]) is listed as “significantly inhibited”. The “Effect on total (cell + bile) and cellular accumulation of TCA” value (human SCH [14]) was “significantly decreased”.

For `Cc1cccc(C)c1OCC(=O)N[C@@H](Cc1ccccc1)[C@@H](O)C[C@H](Cc1ccccc1)NC(=O)[C@H](C(C)C)N1CCCNC1=O` [lopinavir], the “Effect on TCA biliary excretion (BEI and CLb, app, in vitro)” value (rat SCH [2]) is listed as “significantly reduced” and the “Effect on intracellular accumulation of TCA” value (rat SCH [2]) is listed as “increased”.

For `Cc1cc2c(cc1CC(=O)c1sccc1S(=O)(=O)Nc1onc(C)c1Cl)OCO2` [sitaxsentan], the “Hepatocyte concentration relative to medium concentration” value (human SCH [13]) is listed as 40 fold and the “Effect on sodium-dependent TCA uptake” value (human SCH [14]) is listed as “significantly inhibited”.

In the case of `CO[C@H]1/C=C/O[C@@]2(C)Oc3c(C)c(O)c4c(O)c(cc(O)c4c3C2=O)NC(=O)/C(C)=C\C=C\[C@H](C)[C@H](O)[C@@H](C)[C@@H](O)[C@@H](C)[C@H](OC(C)=O)[C@@H]1C` [rifamycin SV], the “Effect on intracellular accumulation of buprenorphine and midazolam” value (CYP3A4 and UGT1A1) is given as “increased”.

For `C[C@H](CCC(=O)NCC(=O)O)[C@H]1CC[C@H]2[C@@H]3CC[C@@H]4C[C@H](O)CC[C@]4(C)[C@H]3CC[C@]12C` [GLCA, glycolithocholic acid], the “Intracellular concentration in human SCH compared with rat SCH” value (human SCH [11]) was “comparable”.

In the case of `C[C@H](CCC(=O)NCCS(=O)(=O)O)[C@H]1CC[C@H]2[C@@H]3[C@H](O)C[C@@H]4C[C@H](O)CC[C@]4(C)[C@H]3CC[C@]12C` [TCDCA, taurochenodeoxycholic acid], the “Cellular concentration relative to CDCA, fold lower” value (rat SCH [15]) is reported as ~ 100 fold.

For `Cc1c(C)c2c(c(C)c1O)CCC(C)(COc1ccc(CC3SC(=O)NC3=O)cc1)O2` (stereo not shown) [TGZ, troglitazone], the “Effect on canalicular efflux of TCA” value (human SCH [1]) is listed as “significantly reduced”, the “Effect on CDCA accumulation in hepatocytes” value (rat SCH [16]) is listed as “increased” and the “Effect on cellular accumulation of TCA” value (rat SCH [16]) is listed as “decreased”.

For `CCCNS(=O)(=O)Nc1ncnc(OCCOc2ncc(Br)cn2)c1-c1ccc(Br)cc1` [macitentan], the “Hepatocyte concentration relative to medium concentration” value (human SCH [13]) is given as “about 100 fold”, the “Effect … (TCA biliary excretion)” value (human SCH [14]) is given as “significantly decreased” and the “Effect on total (cell + bile) and cellular accumulation of TCA” value (human SCH [14]) is given as “significantly decreased”.

For `C[C@H](CCC(=O)O)[C@H]1CC[C@H]2[C@@H]3[C@H](O)C[C@@H]4C[C@H](O)CC[C@]4(C)[C@H]3CC[C@]12C` [CDCA, chenodeoxycholic acid], the CC50 at 24 h [4] was 351 µM, the CC50 at 24 h [6] was 568 µM and the CC50 at 24 h [8] was 243 µM. It also gave a CC50 at 24 h [17] of 972 µM.

In the case of `CC#C[C@]1(O)CC[C@H]2[C@@H]3CCC4=CC(=O)CCC4=C3[C@@H](c3ccc(N(C)C)cc3)C[C@@]21C` [mifepristone], the “Effect on canalicular efflux of TCA” value (human SCH [1]) is listed as “minimal effects”.

For `CCCC1O[C@@H]2C[C@H]3[C@@H]4CCC5=CC(=O)C=C[C@]5(C)[C@H]4[C@@H](O)C[C@]3(C)[C@]2(C(=O)CO)O1` (stereo partly shown) [budesonide], the “Effect on canalicular efflux of TCA” value (human SCH [1]) is listed as “minimal effects”.
